Source: patent publication US20220257484A1, “WHOLE MOUTH MALADOR CONTROL BY A COMBINATION OF ANTIBACTERIAL AND DEODORIZING AGENTS” (The Procter & Gamble Company, priority 2010, published 2022)
Several values for one entry are separate records, joined by “and”; a condition that tells them apart may be missing. Equal values may be shown once.

Test: in-vitro headspace GC-MS odor-neutralizing test, Relative Odor Activity Value (ROAV)
Details: recreated garlic odor, 0.05% active concentration, vs control, negative value indicates no reduction
Experimental: The odor-neutralizing or deodorization activity of target actives was evaluated against a recreated garlic odor using an in-vitro headspace gas chromatography-mass spectrometry (GC-MS) method described below. A mixture of five sulfur compounds (ethanethiol, 1-propanethiol, […], methyl allyl disulfide and […]) was used to simulate a garlic odor. […] [See e.g., J. Taucher, et al. J. Agric. Food Chem. (1996), 44 (12), 3778-3782; F. Suarez, et al. Am. J. Physiol. Gastrointest. Liver Physiol. (1999), 276: G425-G430; I. Laakso, et al. Planta Med. (1989), 55, 257-261; X. J. Cai, et al. J. Agric. Food Chem. (1995), 43, 1751-1753; T. Minami, et al. J. Food Sci. (1989), 54, 763-765.]
The following procedure and instrumentation were used to evaluate the relative odor-neutralizing activity of various compounds.
1) Purge product base (e.g., mouthrinse or dental solution) with nitrogen for 10 minutes. 2) Purge all sample preparation vials with stir bars inside for 1 minute. 3) Add 3960 μl product base to control vials (4 ml capacity) and 3560 μl product base to test sample vials (4 ml capacity). 4) Make garlic stock by mixing the following components in order: 600 μl ethanol; 500 μl ethanethiol; 80 μl 1-propanethiol; 30 μl […]; 20 μl methyl allyl disulfide; 70 μl […]. 5) Add 40 ul of garlic stock to each control and test sample vial. 6) Stir all samples to mix product base and garlic stock for a total time of 20 min. To each test sample vial, add 400 μl of test active after 15 min. of stirring and allow test active mix in and react for 5 min. 7) After mixing, transfer 50 μl each of control sample and test sample to nitrogen purged GC headspace vials. 8) Place control and test sample vials on headspace autosampler for GC analysis. Each sample is equilibrated at 32° C. for 3 min. before injection into the GC instrument.
A Relative OAV is calculated for each component by dividing its peak area by its odor threshold value. Odor threshold values for these compounds are reported in the literature. […] A negative value indicates no reduction in ROAV.

Molecule | % Reduction of ROAV [%] | further results
Cc1ccc(C=O)cc1 [4-methylbenzaldehyde] | 3.67 | 
CC1=CC(=O)[C@@H](C(C)C)CC1 [(−) Piperitone] | 10.19 | 
COc1ccc(C=O)cc1 [Anisaldehyde, 4-methoxybenzaldehyde] | 20.76 | % Reduction of ROAV (listed as 4-Methoxybenzaldehyde (Anisaldehyde)): 20.76%; % Reduction of ROAV (listed as anisaldehyde): 20.76% and > 20%
O=CC=Cc1ccccc1 [Cinnamaldehyde] | 10.73 | 
CC(C)=CCCC(C)=CC=O [Citral, reference compound] | −19.54 | 
CCc1occc(=O)c1O [Ethyl maltol, reference compound] | −3.46 | 
O=Cc1ccc2c(c1)OCO2 [Heliotropin, reference compound] | −2.92 | 
CCCCCC/C(C=O)=C\c1ccccc1 [Hexyl cinnamaldehyde, reference compound] | −1.19 | 
COc1ccc(C=O)cc1OC [Methyl vanillin (Veratraldehyde), 3,4-Dimethoxybenzaldehyde] | 4.45 | 
CCCCCCCC=O [Octanal, reference compound] | −28.76 | % Reduction of ROAV (listed as octanal): no reduction of ROAV
O=Cc1ccccc1O [Salicylaldehyde, 2-Hydroxybenzaldehyde, reference compound] | −5.87 | 
COc1ccc(C=CC=O)cc1 [para-Methoxycinnamaldehyde, reference compound] | −0.49 | 
CC(=O)/C=C/C1=C(C)CCCC1(C)C [β-Ionone] | 17.56 | 
L(−) Carvone | 3.27 | 
